Columns and labels:
[1] = test system: bedstraw; test: Test B pre/postemergence bedstraw; assay type: in vivo, Galium aparine; conditions: Postemergence; for Plant response rating, Bedstraw: scale 0 to 10, 0 is no effect, 10 is complete control; for Bedstraw plant response rating: scale of 0 to 10 where 0 is no effect and 10 is complete control
How it was run: (§1)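 Response is a visual 0-to-10 score relative to untreated plants, where 0 means no effect and 10 means complete control, taken twelve to sixteen days after application. Treatments went onto soil at planting and onto foliage of 1- to 4-leaf plants, using a surfactant-containing non-phytotoxic solvent.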

[2] = test system: blackgrass; test: Test B pre/postemergence blackgrass; assay type: in vivo, Alopecurus myosuroides
How it was run: as §1

[3] = test system: surinam grass; test: Test B pre/postemergence surinam grass; assay type: in vivo, Brachiaria decumbens
How it was run: as §1

[4] = test system: cocklebur; test: Test B pre/postemergence cocklebur; assay type: in vivo, Xanthium strumarium
How it was run: as §1

[5] = test system: corn; test: Test B pre/postemergence corn; assay type: in vivo, Zea mays
How it was run: as §1

[6] = test system: crabgrass; test: Test B pre/postemergence crabgrass; assay type: in vivo, Digitaria sanguinalis
How it was run: as §1

[7] = test system: giant foxtail; test: Test B pre/postemergence giant foxtail; assay type: in vivo, Setaria faberii
How it was run: as §1

[8] = test system: morningglory; test: Test B pre/postemergence morningglory; assay type: in vivo, Ipomoea hederacea
How it was run: as §1

[9] = test system: pigweed; test: Test B pre/postemergence pigweed; assay type: in vivo, Amaranthus retroflexus
How it was run: as §1

[10] = test system: rape; test: Test B pre/postemergence rape; assay type: in vivo, Brassica napus
How it was run: as §1

[11] = test system: soybean; test: Test B pre/postemergence soybean; assay type: in vivo, Glycine max
How it was run: as §1

[12] = test system: sugar beet; test: Test B pre/postemergence sugar beet; assay type: in vivo, Beta vulgaris
How it was run: as §1

[13] = test system: velvetleaf; test: Test B pre/postemergence velvetleaf; assay type: in vivo, Abutilon theophrasti
How it was run: as §1

[14] = test system: wheat; test: Test B pre/postemergence wheat; assay type: in vivo, Triticum aestivum
How it was run: as §1

[15] = test system: wild oat; test: Test B pre/postemergence wild oat; assay type: in vivo, Avena fatua
How it was run: as §1

[16] = test system: purple nutsedge; test: Test B pre/postemergence purple nutsedge; assay type: in vivo, Cyperus rotundus
How it was run: as §1

[17] = test system: rice; test: Test B flood test rice; assay type: in vivo, Oryza sativa
How it was run: (§2)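 Flood test on plants grown to the 2-leaf stage; treated plants kept in greenhouse twelve to sixteen days, then visually rated against controls on a 0 (no effect) to 10 (complete control) scale.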

[18] = test system: smallflower flatsedge; test: Test B flood test smallflower flatsedge; assay type: in vivo, Cyperus difformis
How it was run: as §2

[19] = test system: duck salad; test: Test B flood test duck salad; assay type: in vivo, Heteranthera limosa
How it was run: as §2

[20] = test system: bamyardgrass; test: Test B flood test barnyardgrass; assay type: in vivo, Echinochloa crus-galli
How it was run: as §2

[21] = Postemergence, Rate 125 g/ha, scale 0 to 10, 0 is no effect, 10 is complete control
[22] = Postemergence, Rate 250 g/ha, scale 0 to 10, 0 is no effect, 10 is complete control
[23] = Postemergence, Rate 500 g/ha, scale of 0 to 10 where 0 is no effect and 10 is complete control
[24] = Preemergence, Rate 62 g/ha, scale 0 to 10 (0 no effect, 10 complete control)
[25] = Preemergence, Rate 125 g/ha, scale of 0 to 10 where 0 is no effect and 10 is complete control
[26] = Preemergence, Rate 250 g/ha, scale of 0 to 10 where 0 is no effect and 10 is complete control
[27] = Preemergence, Rate 500 g/ha, scale 0 to 10, 0 is no effect, 10 is complete control
[28] = Rate 62 g/ha, Postemergence, scale of 0 to 10 where 0 is no effect and 10 is complete control
[29] = Preemergence, Rate 250 g/ha, scale 0 to 10, 0 is no effect, 10 is complete control
[30] = Rate 62 g/ha, flood test species, Pre-emergence, visual evaluation after twelve to sixteen days
[31] = Rate 125 g/ha, under heading Pre-emergence, flood test species, visual evaluation after twelve to sixteen days
[32] = Rate 250 g/ha, Pre-emergence, flood-test species, scale 0 to 10, 0 is no effect, 10 is complete control
[33] = Rate 500 g/ha, Pre-emergence, flood test species, scale 0 to 10 (0 no effect, 10 complete control)

`CC(C)N(C(=O)n1oc(=O)n(C)c1=O)c1ccccc1` [Compound 409] was tested, and the “Plant response rating, Bedstraw” value ([1]; Rate 125 g/ha) was 2, the “Plant response rating, Bedstraw” value ([1]; Rate 250 g/ha) was 2 and the “Bedstraw plant response rating” value ([1]; Rate 500 g/ha) was 5. For the same compound, the “Bedstraw plant response rating” value ([1]; Rate 62 g/ha) was 0, the “Plant response rating, Blackgrass” value [2, 21] was 8 and the “Plant response rating, Blackgrass” value [2, 22] was 9. The “Blackgrass plant response rating” value [2, 23] was 10, the “Plant response rating, Blackgrass” value [2, 24] was 4 and the “Plant response rating, Blackgrass” value [2, 25] was 7. The “Blackgrass plant response rating” value [2, 26] was 10, the “Blackgrass plant response rating” value [2, 27] was 10 and the “Blackgrass plant response rating” value [2, 28] was 6. For the same compound, the “Plant response rating, B. signalgrass” value [3, 21] was 5, the “Plant response rating, B. signalgrass” value [3, 22] was 8 and the “B. signalgrass plant response rating” value [3, 23] was 9. The “Plant response rating, B. signalgrass” value [3, 24] was 0, the “Plant response rating, B. signalgrass” value [3, 25] was 4 and the “B. signalgrass plant response rating” value [3, 26] was 7. For the same compound, the “B. signalgrass plant response rating” value ([3]; Preemergence, Rate 500 g/ha, scale of 0 to 10 where 0 is no effect and 10 is complete control) was 9, the “B. signalgrass plant response rating” value [3, 28] was 3 and the “Plant response rating, Cocklebur” value [4, 21] was 0. The “Cocklebur plant response rating” value [4, 23] was 1, the “Plant response rating, Cocklebur” value [4, 24] was 0 and the “Plant response rating, Cocklebur” value [4, 25] was 0. For the same compound, the “Cocklebur plant response rating” value [4, 27] was 2, the “Cocklebur plant response rating” value [4, 28] was 0 and the “Plant response rating, Corn” value [5, 21] was 5. The “Plant response rating, Corn” value [5, 22] was 7, the “Corn plant response rating” value [5, 23] was 7 and the “Plant response rating, Corn” value [5, 24] was 7. For the same compound, the “Plant response rating, Corn” value [5, 25] was 8, the “Corn plant response rating” value [5, 29] was 8 and the “Corn plant response rating” value [5, 27] was 10. The “Corn plant response rating” value [5, 28] was 0, the “Plant response rating, Crabgrass” value [6, 21] was 9 and the “Plant response rating, Crabgrass” value [6, 22] was 9. The “Crabgrass plant response rating” value [6, 23] was 9, the “Plant response rating, Crabgrass” value [6, 24] was 9 and the “Plant response rating, Crabgrass” value [6, 25] was 9. The “Crabgrass plant response rating” value [6, 29] was 10, the “Crabgrass plant response rating” value [6, 27] was 10 and the “Crabgrass plant response rating” value [6, 28] was 6. The “Plant response rating, Giant foxtail” value [7, 21] was 8, the “Plant response rating, Giant foxtail” value [7, 22] was 9 and the “Giant foxtail plant response rating” value [7, 23] was 9. The “Plant response rating, Giant foxtail” value [7, 24] was 9, the “Plant response rating, Giant foxtail” value [7, 25] was 10 and the “Giant foxtail plant response rating” value [7, 29] was 10. The “Giant foxtail plant response rating” value [7, 27] was 10, the “Giant foxtail plant response rating” value [7, 28] was 8 and the “Plant response rating, Morningglory” value [8, 22] was 9. The “Morningglory plant response rating” value [8, 23] was 10, the “Plant response rating, Morningglory” value [8, 24] was 0 and the “Plant response rating, Morningglory” value [8, 25] was 2. The “Morningglory plant response rating” value [8, 29] was 5, the “Morningglory plant response rating” value [8, 27] was 5 and the “Plant response rating, Redroot pigweed” value [9, 22] was 4. For the same compound, the “Redroot pigweed plant response rating” value [9, 23] was 5, the “Plant response rating, Redroot pigweed” value [9, 24] was 7 and the “Plant response rating, Redroot pigweed” value [9, 25] was 8. For the same compound, the “Redroot pigweed plant response rating” value [9, 29] was 8, the “Redroot pigweed plant response rating” value [9, 27] was 10 and the “Plant response rating, Rape” value [10, 22] was 3. For the same compound, the “Plant response rating, Rape” value [10, 24] was 0, the “Plant response rating, Rape” value [10, 25] was 0 and the “Rape plant response rating” value [10, 29] was 4. For the same compound, the “Rape plant response rating” value [10, 27] was 6, the “Plant response rating, Soybean” value [11, 22] was 5 and the “Soybean plant response rating” value [11, 23] was 5. For the same compound, the “Plant response rating, Soybean” value [11, 24] was 0, the “Plant response rating, Soybean” value [11, 25] was 0 and the “Soybean plant response rating” value [11, 29] was 1. For the same compound, the “Soybean plant response rating” value [11, 27] was 8, the “Plant response rating, Sugarbeets” value [12, 22] was 0 and the “Sugarbeets plant response rating” value [12, 23] was 0. For the same compound, the “Plant response rating, Sugarbeets” value [12, 24] was 2, the “Plant response rating, Sugarbeets” value [12, 25] was 7 and the “Sugarbeets plant response rating” value [12, 29] was 8. The “Sugarbeets plant response rating” value [12, 27] was 9, the “Plant response rating, Velvetleaf” value [13, 22] was 0 and the “Velvetleaf plant response rating” value [13, 23] was 0. For the same compound, the “Plant response rating, Velvetleaf” value [13, 24] was 2, the “Plant response rating, Velvetleaf” value [13, 25] was 5 and the “Velvetleaf plant response rating” value [13, 29] was 6. The “Velvetleaf plant response rating” value [13, 27] was 8, the “Wheat plant response rating” value [14, 23] was 7 and the “Plant response rating, Wheat” value [14, 24] was 4. For the same compound, the “Plant response rating, Wheat” value [14, 25] was 8, the “Wheat plant response rating” value [14, 29] was 9 and the “Wheat plant response rating” value [14, 27] was 10. The “Wild oats plant response rating” value [15, 23] was 4, the “Plant response rating, Wild oats” value [15, 24] was 0 and the “Plant response rating, Wild oats” value [15, 25] was 5. The “Wild oats plant response rating” value [15, 29] was 7, the “Wild oats plant response rating” value [15, 27] was 8 and the “Plant response rating, Nutsedge” value [16, 22] was 0. For the same compound, the “Nutsedge plant response rating” value [16, 23] was 0, the “Nutsedge plant response rating” value [16, 29] was 8 and the “Nutsedge plant response rating” value [16, 27] was 8. For the same compound, the “Plant response rating, Rice (0 to 10 scale, 0 is no effect, 10 is complete control)” value [17, 30] was 0, the “Rice plant response rating (0 to 10 scale, 0 is no effect, 10 is complete control)” value [17, 31] was 0 and the “Rice plant response rating” value [17, 32] was 0. For the same compound, the “Rice plant response rating” value [17, 33] was 0, the “Plant response rating, S. Flatsedge (0 to 10 scale, 0 is no effect, 10 is complete control)” value [18, 30] was 0 and the “S. Flatsedge plant response rating (0 to 10 scale, 0 is no effect, 10 is complete control)” value [18, 31] was 0. For the same compound, the “S. Flatsedge plant response rating” value [18, 32] was 2, the “S. Flatsedge plant response rating” value [18, 33] was 2 and the “Plant response rating, Ducksalad (0 to 10 scale, 0 is no effect, 10 is complete control)” value [19, 30] was 0. The “Ducksalad plant response rating (0 to 10 scale, 0 is no effect, 10 is complete control)” value [19, 31] was 0, the “Ducksalad plant response rating” value [19, 32] was 0 and the “Ducksalad plant response rating” value [19, 33] was 0. For the same compound, the “Plant response rating, Barnyardgrass (0 to 10 scale, 0 is no effect, 10 is complete control)” value [20, 30] was 1, the “Barnyardgrass plant response rating (0 to 10 scale, 0 is no effect, 10 is complete control)” value [20, 31] was 2 and the “Barnyardgrass plant response rating” value [20, 32] was 3. The “Barnyardgrass plant response rating” value [20, 33] was 3.

— patent US6737383B1, “Herbicidal oxadiazolidines” (priority 1999, dated 2004)
